Test results taken from patent publication US8795633B2, “Multiphoton in vivo flow cytometry method and device” (Purdue Research Foundation, priority 2005, dated 2014).
*1 amine or outer side, *2 acyl side, *3 side chain or, on linkers, in order; H or OH if unused. Where a SMILES comes first, the peptide text is derived from it. Bridges are numbered along the chain shown (N, C = ends). [ ]: non-standard residue; d: D form. The star is where a group is joined. ξ: configuration not given here. X1 = O=C(O)CNC(=O)C(CCCCNC(=S)Nc1ccc(-c2c3ccc(=O)cc-3oc3cc(O)ccc23)c(C(=O)O)c1)N*; X2 = O=C(C1CCN[c+]2c(N[*:1])cc3cc(O)c(O)cc3n21)[*:2]; ξOrn(N(OH)CHO) = NC(CCCN(O)C=O)C(=O)O; Glutaryl = O=C(CCCC(=O)[*:2])[*:1]

Tests used:
[1] = molecular target: T1, cell surface folate receptors (Mus musculus, UniProt P35846); experiment: Fluorescence measurement of binding to folate receptor positive M109 cells in culture
T1 construct: cell surface folate receptors on folate receptor positive M109 cells in culture; endogenous in cells; host or cells: M109 cells
T1 sequence (P35846 25-232): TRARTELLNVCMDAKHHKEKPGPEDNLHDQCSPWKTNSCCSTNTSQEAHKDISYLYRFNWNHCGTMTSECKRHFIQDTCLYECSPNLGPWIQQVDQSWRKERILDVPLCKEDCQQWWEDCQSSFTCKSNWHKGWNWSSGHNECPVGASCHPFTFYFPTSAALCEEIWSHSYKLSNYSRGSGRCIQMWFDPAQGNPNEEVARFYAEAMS
Method: Texas Red C2-maleimide (Molecular Probes, Eugene, Oreg.) was dissolved in dimethyl sulfoxide (DMSO) (1 mg in 200 μl DMSO). A 1.4 molar equivalent (1 mg) of Folate-Cys was added to the solution and mixed for 4 hours at room temperature. Folate-Cys-Texas Red (Folate-Texas Red) was purified by reverse-phase HPLC on a C18 column at a flow rate of 1 ml/min. The mobile phase, consisting of 10 mM NH4HCO3 buffer, pH 7.0 (eluent A) and acetonitrile (eluent B), was maintained at a 99:1 A:B ratio for the first five minutes and then changed to 70:30 A:B in a linear gradient over the next 30 minutes followed by a 1:99 A:B linear gradient over the last 15 minutes. Folate-Cys-Texas Red eluted as two isomer peaks at 44.5 and 45.8 minutes. The product was confirmed by mass spectroscopy and the biologic activity was confirmed by fluorescence measurement of its binding to cell surface folate receptors on folate receptor positive M109 cells in culture.

Pseudomonas aeruginosa = experiment: FACS analysis of pyoverdine peptide fluorescein binding and competition; conditions: 0.1 μM conjugate; 100-fold excess free pyoverdine
Method: The x-axis indicates fluorescence intensity.
(§1) This procedure applies to Examples 25-27. For cell sorting assays, iron limited conditions were maintained by addition of dipyridyl to the culture (final concentration of […]). Cells were grown to mid-log phase (NB or LB broth), the siderophore conjugates added to 10-20 million CFU of bacterial cells to a final siderophore conjugate concentration of 2-3 uM (total volume=11 mL), and incubated for a period of 30 minutes. Competition was performed by adding a 100-fold excess of desferrioxamine (Yersinia) or pyoverdine PaA (Pseudomonas) to the cells 15 minutes prior to incubation with the siderophore conjugates. Fluorescently activated cell sorting (FACS) was performed on a FACS Caliber (BD Bio systems, Franklin Lakes, N.J.) cell sorter with both the forward scatter and side scatter in the log mode per manufactures guidelines for analyzing bacteria. Bacteria samples were diluted with PBS to achieve 200-400 counts per second.
Cell studies using FACS analysis and Pseudomonas aeruginosa were performed essentially as described under Example 25 (see FIG. 10) to assess binding and competition of this molecule (concentrations ranged from 1 μM to 1 nM).

Yersinia enterocolitica = experiment: FACS analysis of desferrioxamine fluorescein binding and competition
Method: as §1
In this case, fluorescence shift indicates binding of the fluorescein conjugate to the siderophore receptor on the bacterial surface; whereas, adding excess non-labeled ligand (competition) reduces the number of free binding sites prior to conjugate incubation. […] It is interesting to note that this compound was iron unloaded and thus consistent with unloaded siderophore binding reported by Schalk et al., Mol. Microbiol. 39: 351-360 (2001).

Nc1nc2ncc(CNc3ccc(C(=O)NC(CCC(=O)NC(CSC4CC(=O)N(CCNS(=O)(=O)c5ccc(C6=c7cc8c9c(c7Oc7c6cc6c%10c7CCCN%10CCC6)CCC[N+]=9CCC8)c(S(=O)(=O)[O-])c5)C4=O)C(=O)O)C(=O)O)cc3)nc2c(=O)[nH]1 (stereo not shown) [Folate-Cys-Texas Red]
biologic activity (binding to cell surface folate receptors) [1]: confirmed

CC(O)C1NC(=O)C(CCCN(O)C=O)NC(=O)C(NC(=O)C(CCCN(O)C=O)NC(=O)C(CO)NC(=O)C(CCCNC(=N)N)NC(=O)C(CO)NC(=O)C2CCN[c+]3c(NC(=O)CCCC(=O)NC(CCC(=O)O)C(=O)NC(CCCCNC(=S)Nc4ccc(-c5c6ccc(=O)cc-6oc6cc(O)ccc56)c(C(=O)O)c4)C(=O)NCC(=O)O)cc4cc(O)c(O)cc4n32)CCCCNC(=O)C(C(C)O)NC1=O (stereo not shown) [Pyoverdine Peptide Fluorescein] ({X1-Glu-Glutaryl}-[X2]SRS[ξOrn(N(OH)CHO)]K[ξOrn(N(OH)CHO)]TT; lactam 6-C; configuration not given here)
binding and competition (Pseudomonas aeruginosa): competition using free pyoverdine was detected

CC(=O)N(O)CCCCCNC(=O)CCC(=O)NCCCCCNC(=O)CCC(=O)N(O)CCCCCNC(=S)Nc1ccc(-c2c3ccc(=O)cc-3oc3cc(O)ccc23)c(C(=O)O)c1 [desferrioxamine fluorescein]
shift in fluorescence intensity with competition (Yersinia enterocolitica; competition with a 100-fold excess of desferrioxamine): 15% | shift in fluorescence intensity (Yersinia enterocolitica; non-competed, 2 μM conjugate concentration, non-incubated control 1%): ~50%
